{
  "source": "patent US4758580A",
  "about": "“Inhibiting growth of tumors with certain substituted phenoxy dimethyl alkanoic acids, esters or salts” (Yamanouchi Pharmaceutical Co., Ltd., priority 1985, dated 1988)",
  "key": {"L-1210": {"system": "L-1210", "assay": "In vitro cytotoxicity against mouse tumor cells, L-1210", "assay_type": "cell-based", "settings": "L1210, 72 h, L-1210, 3 days, 37° C., trypan blue, read-out: IC50", "description": "(§1) A suspension of cells in a culture medium was transferred into wells in a microplate in an amount of 1×10^5 cells/wall. Test sample diluted with a culture medium was added to the suspension in each well, and the mixture was incubated on the medium at 37° C. for 3 days in atmosphere of air containing 5% carbon dioxide. Thereafter, the incubated cells were recovered from the microplate and the number of live cells was counted by the dye exclusion test using a 0.5% solution of trypan blue and by using a hemocytomer."}, "ACHN (kidney cancer)": {"system": "ACHN (kidney cancer)", "assay": "In vitro cytotoxicity against human tumor cells, ACHN", "assay_type": "cell-based", "settings": "72 h, 3 days, 37° C., crystalviolet, read-out: IC50", "description": "(§2) A suspension of cells in a culture medium was transferred into wells in a microplate in an amount of 5×10^4 cells/well. Test sample diluted with a culture medium was added to the suspension in each well, and the mixture was incubated at 37° C. for 3 days in an atmosphere of air containing 5% carbon dioxide. After skimming, sticking cells were dyed which crystalviolet for 10 minutes. After washing with water, 1% sodium lauryl sulfate solution was added to each well, and the absrobancy (optical density) at […] was measured. \"% inhibition\" was calculated from the following equation. [formula]"}, "Ehrlich (carcinoma)": {"system": "Ehrlich (carcinoma)", "assay": "In vitro cytotoxicity against mouse tumor cells, Ehrlich", "assay_type": "cell-based", "settings": "72 h, Ehrlich (carcinoma), 3 days, 37° C., trypan blue, read-out: IC50", "description": "as §1"}, "[1]": {"assay": "Toxicity test (acute, oral)", "settings": "mouse, in vivo, ddY mice, male", "description": "The active component was orally administered to ddY mice (mean body weight of 35 g, male). No example of death was noted up to the dose of 5,000 mg/kg. Accordingly, the acute toxicity of Compound B is greater than 5,000 mg/kg. (Effects)"}, "Ehrlich ascites tumor": {"system": "Ehrlich ascites tumor", "assay": "Anti-tumor effect against Ehrlich ascites tumor", "assay_type": "in vivo, ddY/SLC mice", "description": "Ehlrich tumor cells, 1×10^6, on Day 7 after intraperitoneal transplantation to ddY/SLC mice were intraperitoneally transplanted to ddY/SLC mice (5 week age, male) of 10 mice each being grouped in one. The active component was intraperitoneally administered in a definite dose 24 hours after the transplantation according to the schedule shown in Table 4. An effect of tumor growth inhibition was evaluated by a percentage of the median survival day of the administered group versus that of the control group, according to the following equation.\nT: median survival day of the administered group\nC: median survival day of the control group"}, "[2]": {"system": "Meth A (methylcholanthrene-induced cancer)", "assay": "In vitro cytotoxicity against mouse tumor cells, Meth A", "assay_type": "cell-based", "settings": "72 h, Meth A, 3 days, 37° C., trypan blue, read-out: IC50", "description": "as §1"}, "MM-46 solid tumor": {"system": "MM-46 solid tumor", "assay": "Test against mouse mammalian MM-46 solid tumor", "assay_type": "in vivo, C3 H/He/SLC mice", "settings": "1-9 Days", "description": "MM-46 Tumor cells, 1×10^6, on Day 7 after intraperitoneal transplantation to C3 H/He/SLC mice were subcutaneously transplanted to the left abdomen of C3 H/He/SLC mice (5 week age, male) of 8 mice each being grouped in one (21 mice for the control group). The active component was orally administered in a definite dose 24 hours after the transplantation according to the schedule shown in Table 2. An effect of tumor growth inhibition was compared by measuring the long diameter and short diameter of the tumor on Days 14 and 21 after the transplantation, calculating the tumor size (mm^2) and determining a tumor growth inhibition rate of the active component-administered group to the control group."}, "Ehrlich solid tumor": {"system": "Ehrlich solid tumor", "assay": "Anti-tumor test against Ehrlich solid tumor", "assay_type": "in vivo, ddY/SLC mice", "description": "Ehrlich tumor cells, 2×10^6, on Day 7 after intraperitoneal transplantation to ddY/SLC mice were subcutaneously transplanted in the left abdomen of ddY/SLC mice (5 week age, male), 10 each grouped into one. The active component was intraperitoneally or orally administered in a definite dose 24 hours after the transplantation, according to the schedule shown in Table 1 (A), (B) or (C). An effect of inhibiting growth of tumor was compared, by measuring the long diameter and short diameter of the tumor on 14, 20 and 21 Days after the transplantation, calculating the tumor size (mm^2) and determining a tumor growth inhibition rate of the group administered with the active component to the control group according to the following equation:\nGrowth inhibition rate (%)=(C-T)/C×100\nT: means tumor size (mm^2) in the active component-administered group\nC: mean tumor size (mm^2) in the control group"}, "MM 46 (mammary cancer)": {"system": "MM 46 (mammary cancer)", "assay": "In vitro cytotoxicity against mouse tumor cells, MM 46", "assay_type": "cell-based", "settings": "72 h, 3 days, 37° C., trypan blue", "description": "as §1"}, "Hela (uterine cancer)": {"system": "Hela (uterine cancer)", "assay": "In vitro cytotoxicity against human tumor cells, Hela", "assay_type": "cell-based", "settings": "72 h, 3 days, 37° C., crystalviolet", "description": "as §2"}, "[3]": {"settings": "100 mg/kg i.p., 1, 3, 6, 8 & 10 Days"}, "[4]": {"settings": "Day 14, 60 mg/kg i.p., Days 1, 2, 3, 4, 7, 8, 10 & 13"}, "[5]": {"settings": "Day 14, 100 mg/kg i.p., Days 1, 3, 7, 10, 13 & 14"}, "[6]": {"settings": "Day 14, 200 mg/kg p.o., Days 1, 2, 3, 4, 7, 8, 10 & 13"}, "[7]": {"settings": "Day 21, 60 mg/kg i.p., Days 1, 2, 3, 4, 7, 8, 10 & 13"}, "[8]": {"settings": "Day 21, 100 mg/kg i.p., Days 1, 3, 7, 10, 13 & 14"}, "[9]": {"settings": "Day 21, 200 mg/kg p.o., Days 1, 2, 3, 4, 7, 8, 10 & 13"}},
  "data": [
    {"smiles": "CCOC(=O)C(C)(C)CCCCOc1ccc(OCCCCCn2ccnc2)cc1", "note": "[Compound B]", "values": [
      {"measurement": "IC50", "setting": "L-1210", "result": 1.9, "unit": "µg/mL"},
      {"measurement": "IC50", "setting": "ACHN (kidney cancer)", "result": 2.3, "unit": "µg/mL"},
      {"measurement": "IC50", "setting": "Ehrlich (carcinoma)", "result": 0.5, "unit": "µg/mL"},
      {"measurement": "LD50", "setting": "[1]", "result": "> 5000", "unit": "mg/kg"},
      {"measurement": "Median Survival Day", "setting": "Ehrlich ascites tumor; 15 mg/kg i.p., 1-9 Days", "result": 16.0, "unit": "days"},
      {"measurement": "No. of 40-day Survivors", "setting": "Ehrlich ascites tumor; 15 mg/kg i.p., 1-9 Days", "result": "0/8"},
      {"measurement": "T/C (median survival)", "setting": "Ehrlich ascites tumor; 15 mg/kg i.p., 1-9 Days", "result": 106, "unit": "%"},
      {"measurement": "Median Survival Day", "setting": "Ehrlich ascites tumor; 30 mg/kg i.p., 1-9 Days", "result": 22.5, "unit": "days"},
      {"measurement": "No. of 40-day Survivors", "setting": "Ehrlich ascites tumor; 30 mg/kg i.p., 1-9 Days", "result": "1/8"},
      {"measurement": "T/C (median survival)", "setting": "Ehrlich ascites tumor; 30 mg/kg i.p., 1-9 Days", "result": 150.0, "unit": "%"},
      {"measurement": "Median Survival Day", "setting": "Ehrlich ascites tumor; 60 mg/kg i.p., 1-9 Days", "result": 21.5, "unit": "days"},
      {"measurement": "No. of 40-day Survivors", "setting": "Ehrlich ascites tumor; 60 mg/kg i.p., 1-9 Days", "result": "2/8"},
      {"measurement": "T/C (median survival)", "setting": "Ehrlich ascites tumor; 60 mg/kg i.p., 1-9 Days", "result": 143.3, "unit": "%"},
      {"measurement": "Median Survival Day", "setting": "Ehrlich ascites tumor; [3]", "result": 26.5, "unit": "days"},
      {"measurement": "No. of 40-day Survivors", "setting": "Ehrlich ascites tumor; [3]", "result": "2/8"},
      {"measurement": "T/C (median survival)", "setting": "Ehrlich ascites tumor; [3]", "result": 176.7, "unit": "%"},
      {"measurement": "IC50", "setting": "[2]", "result": 0.8, "unit": "µg/mL"},
      {"measurement": "Growth Inhibition Rate", "setting": "MM-46 solid tumor; Day 14, 100 mg/kg p.o.", "result": 40.4, "unit": "%"},
      {"measurement": "Size of Tumor", "setting": "MM-46 solid tumor; Day 14, 100 mg/kg p.o.", "result": "150.1 ± 52.1", "unit": "mm^2"},
      {"measurement": "Growth Inhibition Rate", "setting": "MM-46 solid tumor; Day 14, 200 mg/kg p.o.", "result": 41.3, "unit": "%"},
      {"measurement": "Size of Tumor", "setting": "MM-46 solid tumor; Day 14, 200 mg/kg p.o.", "result": "147.9 ± 56.2", "unit": "mm^2"},
      {"measurement": "Growth Inhibition Rate", "setting": "MM-46 solid tumor; Day 14, 400 mg/kg p.o.", "result": 47.8, "unit": "%"},
      {"measurement": "Size of Tumor", "setting": "MM-46 solid tumor; Day 14, 400 mg/kg p.o.", "result": "131.5 ± 55.2", "unit": "mm^2"},
      {"measurement": "Growth Inhibition Rate", "setting": "MM-46 solid tumor; Day 21, 100 mg/kg p.o.", "result": 55.8, "unit": "%"},
      {"measurement": "Size of Tumor", "setting": "MM-46 solid tumor; Day 21, 100 mg/kg p.o.", "result": "149.4 ± 84.8", "unit": "mm^2"},
      {"measurement": "Growth Inhibition Rate", "setting": "MM-46 solid tumor; Day 21, 200 mg/kg p.o.", "result": 53.4, "unit": "%"},
      {"measurement": "Size of Tumor", "setting": "MM-46 solid tumor; Day 21, 200 mg/kg p.o.", "result": "147.5 ± 65.3", "unit": "mm^2"},
      {"measurement": "Growth Inhibition Rate", "setting": "MM-46 solid tumor; Day 21, 400 mg/kg p.o.", "result": 53.4, "unit": "%"},
      {"measurement": "Size of Tumor", "setting": "MM-46 solid tumor; Day 21, 400 mg/kg p.o.", "result": "157.4 ± 104.0", "unit": "mm^2"},
      {"measurement": "Growth Inhibition Rate", "setting": "Ehrlich solid tumor; [4]", "result": 25.7, "unit": "%"},
      {"measurement": "Size of Tumor", "setting": "Ehrlich solid tumor; [4]", "result": "107.3 ± 54.6", "unit": "mm^2"},
      {"measurement": "Growth Inhibition Rate", "setting": "Ehrlich solid tumor; [5]", "result": 51.4, "unit": "%"},
      {"measurement": "Size of Tumor", "setting": "Ehrlich solid tumor; [5]", "result": "70.1 ± 33.8", "unit": "mm^2"},
      {"measurement": "Growth Inhibition Rate", "setting": "Ehrlich solid tumor; [6]", "result": 66.3, "unit": "%"},
      {"measurement": "Size of Tumor", "setting": "Ehrlich solid tumor; [6]", "result": "48.7 ± 44.3", "unit": "mm^2"},
      {"measurement": "Growth Inhibition Rate", "setting": "Ehrlich solid tumor; [7]", "result": 37.0, "unit": "%"},
      {"measurement": "Size of Tumor", "setting": "Ehrlich solid tumor; [7]", "result": "323.3 ± 163.4", "unit": "mm^2"},
      {"measurement": "Growth Inhibition Rate", "setting": "Ehrlich solid tumor; [8]", "result": 38.5, "unit": "%"},
      {"measurement": "Size of Tumor", "setting": "Ehrlich solid tumor; [8]", "result": "315.3 ± 235.3", "unit": "mm^2"},
      {"measurement": "Growth Inhibition Rate", "setting": "Ehrlich solid tumor; [9]", "result": 78.7, "unit": "%"},
      {"measurement": "Size of Tumor", "setting": "Ehrlich solid tumor; [9]", "result": "109.2 ± 133.5", "unit": "mm^2"},
      {"measurement": "IC50", "setting": "MM 46 (mammary cancer)", "result": 0.7, "unit": "µg/mL"},
      {"measurement": "IC50", "setting": "Hela (uterine cancer)", "result": 2.05, "unit": "µg/mL"}
    ]}
  ]
}
